Results on 22 compounds are retold here after patent publication US20220281821A1, “INDAZOLE COMPOUNDS AND THEIR PHARMACEUTICAL COMPOSITIONS” (Jinan University, priority 2019, published 2022).

Holding throughout (assay type): cell-based, mouse
One assay addresses T1, BaF3-ETV6-NTRK2 (Homo sapiens, UniProt Q16620).
T1 construct: fused on or other part: P41212 (Transcription factor ETV6)
Description: Cell proliferation inhibition (CCK-8), BaF3-ETV6-NTRK2 stable strain. The conditions noted are these: BaF3-ETV6-NTRK2, 72 hours. As to the method: (§1) The brief steps of stable strain construction are as follows: construct a pCDNA3.1(+) plasmid vector carrying genes such as CD74-NTRK1, ETV6-NTRK2 and ETV6-NTRK3; the plasmid was electroporated into Ba/F3 cells using the Amaxa® Cell Line Nucleofector® Kit V; 48 hours after electroporated, G418 with a final concentration of 1000 μg/ml was added for screening for two weeks, and then IL3 was removed, and continued screening to obtain polyclonal stable strains; then single clones were selected by a limiting dilution method. The stable strains were then identified using positive drugs, WB and gene sequencing; and the monoclonal clones that were identified as completely correct may be used for the study of cell proliferation inhibitory activity of inhibitors.
(§2) Cell proliferation inhibition activity study: the cells in the logarithmic growth phase were seeded into 96-well plates at 8000-12000 cells/well, and inhibitors at different concentrations (0-10 μM) were added the next day, and incubation was continued for 72 hours; then 10 μL of CCK-8 reagent was added to each well, and the incubation was continued for 1-3 hours; and then use a super microplate reader to measure their absorbance values at 450 nm and 650 nm. The half-inhibition concentration (IC50) was calculated using GraphPad Prism 8.0.0.

The target in the next assay is T2, BaF3-CD74-NTRK1 (Homo sapiens, UniProt P04629).
T2 construct: fused on or other part: P04233 (HLA class II histocompatibility antigen gamma chain)
T2 sequence (P04629 510-796 limits assumed): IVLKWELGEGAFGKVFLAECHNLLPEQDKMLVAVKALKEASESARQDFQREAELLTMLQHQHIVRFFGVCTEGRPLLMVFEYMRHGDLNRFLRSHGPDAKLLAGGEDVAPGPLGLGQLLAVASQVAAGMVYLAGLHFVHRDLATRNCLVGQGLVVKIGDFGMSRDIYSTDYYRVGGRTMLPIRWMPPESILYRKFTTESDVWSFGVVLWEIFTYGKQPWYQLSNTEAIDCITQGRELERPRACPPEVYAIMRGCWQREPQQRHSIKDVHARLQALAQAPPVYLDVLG
The experiment in a line: Cell proliferation inhibition (CCK-8), BaF3-CD74-NTRK1 stable strain. The following applies: BaF3-CD74-NTRK1, 72 hours. The protocol: as §1, §2

A further assay concerns the target T3, BaF3-ETV6-NTRK3 (Homo sapiens, UniProt Q16288).
T3 construct: fused on or other part: P41212 (Transcription factor ETV6)
The experiment in a line: Cell proliferation inhibition (CCK-8), BaF3-ETV6-NTRK3 stable strain. The conditions noted are these: BaF3-ETV6-NTRK3, 72 hours. As to the method:
as §1, §2

T3 sequence (Q16288 whole entry, the tested form may be a part): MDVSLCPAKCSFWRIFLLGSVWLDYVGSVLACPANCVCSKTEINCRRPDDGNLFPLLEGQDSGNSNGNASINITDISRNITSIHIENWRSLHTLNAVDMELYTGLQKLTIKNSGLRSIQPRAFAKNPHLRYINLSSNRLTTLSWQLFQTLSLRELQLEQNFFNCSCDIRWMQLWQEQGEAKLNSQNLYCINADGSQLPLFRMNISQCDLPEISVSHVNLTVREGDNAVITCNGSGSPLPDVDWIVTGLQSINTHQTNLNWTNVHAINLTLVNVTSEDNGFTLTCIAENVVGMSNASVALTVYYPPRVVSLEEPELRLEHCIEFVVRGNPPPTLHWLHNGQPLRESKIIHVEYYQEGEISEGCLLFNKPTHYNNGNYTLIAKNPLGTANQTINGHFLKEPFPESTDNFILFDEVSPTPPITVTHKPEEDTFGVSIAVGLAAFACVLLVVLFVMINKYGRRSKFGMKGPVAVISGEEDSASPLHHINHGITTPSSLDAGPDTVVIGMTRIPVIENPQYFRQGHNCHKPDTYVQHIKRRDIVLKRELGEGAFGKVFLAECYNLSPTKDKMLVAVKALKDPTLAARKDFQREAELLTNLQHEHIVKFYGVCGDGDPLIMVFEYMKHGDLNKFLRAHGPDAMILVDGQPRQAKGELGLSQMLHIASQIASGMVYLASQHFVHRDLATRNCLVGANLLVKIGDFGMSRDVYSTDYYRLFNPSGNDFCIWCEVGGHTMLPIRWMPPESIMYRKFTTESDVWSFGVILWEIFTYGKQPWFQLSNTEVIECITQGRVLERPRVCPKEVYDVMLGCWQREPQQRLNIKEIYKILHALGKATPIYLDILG
T1 sequence (Q16620 538-822 limits assumed): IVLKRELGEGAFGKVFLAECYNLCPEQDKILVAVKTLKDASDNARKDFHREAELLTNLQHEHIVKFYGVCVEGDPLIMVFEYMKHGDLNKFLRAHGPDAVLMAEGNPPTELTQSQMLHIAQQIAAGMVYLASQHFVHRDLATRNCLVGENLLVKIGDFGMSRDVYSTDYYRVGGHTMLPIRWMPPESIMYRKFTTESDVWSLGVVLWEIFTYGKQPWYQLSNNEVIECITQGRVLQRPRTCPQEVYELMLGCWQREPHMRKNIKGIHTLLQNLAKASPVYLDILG

`C[C@@H](Nc1ccc2[nH]nc(/C=C/c3ccccn3)c2n1)c1cc(F)cc(F)c1` [DYX-332, (R,E)-N-(1-(3,5-difluorophenyl)ethyl)-3-(2-(pyridin-2-yl)vinyl)-1H-pyrazolo[4,3-b]pyridin-5-amine]: the IC50 on BaF3-ETV6-NTRK2 came out at 146 nM; against BaF3-CD74-NTRK1, 9.9 nM; against BaF3-ETV6-NTRK3 it was 46.5 nM.
Turning to `C[C@@H](Nc1ccc2[nH]nc(/C=C/c3cnn(CCO)c3)c2c1)c1cccc(F)c1` [DYX-335, (R,E)-2-(4-(2-(5-((1-(3-fluorophenyl)ethyl)amino)-1H-indazol-3-yl)vinyl)-1H-pyrazol-1-yl)-1-ethanol], the half-inhibitory concentration (IC50) against BaF3-ETV6-NTRK2 stood at 10.7 nM; against BaF3-CD74-NTRK1, 0.6 nM; on BaF3-ETV6-NTRK3, 3.3 nM.
Regarding `C[C@@H](Nc1cc2c(/C=C/c3ccccn3)n[nH]c2cn1)c1cc(F)cc(F)c1` [DYX-340, (R,E)-N-(1-(3,5-difluorophenyl)ethyl)-3-(2-(pyridin-2-yl)vinyl)-1H-pyrazolo[3,4-c]pyridin-5-amine], the results for the IC50 at BaF3-ETV6-NTRK2, against BaF3-CD74-NTRK1 and against BaF3-ETV6-NTRK3 were 160 nM, 18.7 nM and 68 nM, respectively.
For `C[C@@H](Nc1ccc2[nH]nc(/C=C/c3cnn(C)c3)c2c1)c1cc(F)cc(F)c1` [DYX-346, (R,E)-N-(1-(3,5-difluorophenyl)ethyl)-3-(2-(1-methyl-1H-pyrazol-4-yl)vinyl)-1H-indazol-5-amine], in that order: 9.5 nM, 6.5 nM and 3.1 nM.
With `CCn1cc(/C=C/c2n[nH]c3ccc(N[C@H](C)c4cc(F)cc(F)c4)cc23)cn1` [DYX-349, (R,E)-N-(1-(3,5-difluorophenyl)ethyl)-3-(2-(1-ethyl-1H-pyrazol-4-yl)vinyl)-1H-indazol-5-amine], the results for the IC50 at BaF3-ETV6-NTRK2, on BaF3-CD74-NTRK1 and against BaF3-ETV6-NTRK3 were 10.7 nM, 7.4 nM and 4.3 nM, respectively.
The like results for `Fc1cc(Cl)cc(CNc2ccc3[nH]nc(/C=C/c4ccccn4)c3c2)c1` [DYX-400, (E)-N-(3-fluoro-5-chlorobenzyl)-3-(2-(pyridin-2-yl)vinyl)-1H-indazol-5-amine] were, in that order, 154 nM, 59 nM and 41.1 nM.
The like results for `Cc1cc(F)cc(CNc2ccc3[nH]nc(/C=C/c4ccccn4)c3c2)c1` [DYX-401, (E)-N-(3-fluoro-5-methylbenzyl)-3-(2-(pyridin-2-yl)vinyl)-1H-indazol-5-amine] were, in that order, 448 nM, 113 nM and 112 nM.
The like results for `N#Cc1cc(F)cc(CNc2ccc3[nH]nc(/C=C/c4ccccn4)c3c2)c1` [DYX-402, (E)-3-fluoro-5-(((3-(2-(pyridin-2-yl)vinyl)-1H-indazol-5-yl)amino)methyl)benzonitrile] were, in that order, 53.5 nM, 28.2 nM and 22.6 nM.
As to `COc1cc(F)cc(CNc2ccc3[nH]nc(/C=C/c4ccccn4)c3c2)c1` [DYX-403, (E)-N-(3-fluoro-5-methoxybenzyl)-3-(2-(pyridin-2-yl)vinyl)-1H-indazol-5-amine], the IC50 turned out to be 137 nM against BaF3-ETV6-NTRK2, 52.6 nM on BaF3-CD74-NTRK1 and 180 nM at BaF3-ETV6-NTRK3.
The like results for `C[C@@H](Nc1ccc2[nH]nc(/C=C/c3cccnc3)c2c1)c1cc(F)cc(F)c1` [DYX-409, (R,E)-N-(1-(3,5-difluorophenyl)ethyl)-3-(2-(pyridin-3-yl)vinyl)-1H-indazol-5-amine] were, in that order, 36.9 nM, 6.4 nM and 7.7 nM.
Regarding `C[C@@H](Nc1ccc2[nH]nc(/C=C/c3ccncc3)c2c1)c1cc(F)cc(F)c1` [DYX-410, (R,E)-N-(1-(3,5-difluorophenyl)ethyl)-3-(2-(pyridin-4-yl)vinyl)-1H-indazol-5-amine], the results for the IC50 against BaF3-ETV6-NTRK2, on BaF3-CD74-NTRK1 and at BaF3-ETV6-NTRK3 were 11.7 nM, 10.3 nM and 3.5 nM, respectively.
On to `C[C@@H](Nc1ccc2[nH]nc(/C=C/c3cnccn3)c2c1)c1cc(F)cc(F)c1` [DYX-411, (R,E)-N-(1-(3,5-difluorophenyl)ethyl)-3-(2-(pyrazin-2-yl)vinyl)-1H-indazol-5-amine], for which the results for the IC50 against BaF3-ETV6-NTRK2, against BaF3-CD74-NTRK1 and against BaF3-ETV6-NTRK3 were 38 nM, 35.7 nM and 11 nM, respectively.
The like results for `C[C@@H](Nc1ccc2[nH]nc(/C=C/c3ccccc3)c2c1)c1cc(F)cc(F)c1` [DYX-412, (R,E)-N-(1-(3,5-difluorophenyl)ethyl)-3-styryl-1H-indazol-5-amine] were, in that order, 115 nM, 110 nM and 35.6 nM.
For `Fc1ccccc1CNc1ccc2[nH]nc(/C=C/c3ccccn3)c2c1` [DYX-413, (E)-N-(2-fluorobenzyl)-3-(2-(pyridin-2-yl)vinyl)-1H-indazol-5-amine], in that order: 376 nM, 40.8 nM and 161 nM.
For `Fc1cc(CNc2ccc3[nH]nc(/C=C/c4ccccn4)c3c2)cc(C(F)(F)F)c1` [DYX-414, (E)-N-(3-fluoro-5-(trifluoromethyl)benzyl)-3-(2-(pyridin-2-yl)vinyl)-1H-indazol-5-amine], in that order: 2520 nM, 196 nM and 1180 nM.
On to `Fc1cc(Br)cc(CNc2ccc3[nH]nc(/C=C/c4ccccn4)c3c2)c1` [DYX-415, (E)-N-(3-bromo-5-fluorobenzyl)-3-(2-(pyridin-2-yl)vinyl)-1H-indazol-5-amine], for which the 50% inhibitory concentration (IC50) is 510 nM against BaF3-ETV6-NTRK2, 50.8 nM against BaF3-CD74-NTRK1 and 156 nM on BaF3-ETV6-NTRK3.
`Fc1ccc(Cl)c(CNc2ccc3[nH]nc(/C=C/c4ccccn4)c3c2)c1` [DYX-416, (E)-N-(2-chloro-5-fluorobenzyl)-3-(2-(pyridin-2-yl)vinyl)-1H-indazol-5-amine]: the IC50 on BaF3-ETV6-NTRK2 was determined as 88.7 nM; at BaF3-CD74-NTRK1, 21 nM; against BaF3-ETV6-NTRK3 it was 34.3 nM.
For the compound `Fc1ccc(CNc2ccc3[nH]nc(/C=C/c4ccccn4)c3c2)cc1` [DYX-417, (E)-N-(4-fluorobenzyl)-3-(2-(pyridin-2-yl)vinyl)-1H-indazol-5-amine], the results for the concentration for half-maximal inhibition (IC50) on BaF3-ETV6-NTRK2, against BaF3-CD74-NTRK1 and against BaF3-ETV6-NTRK3 were 2530 nM, 158 nM and 579 nM, respectively.
The like results for `COc1ccc(F)cc1CNc1ccc2[nH]nc(/C=C/c3ccccn3)c2c1` [DYX-418, (E)-N-(5-fluoro-2-methoxybenzyl)-3-(2-(pyridin-2-yl)vinyl)-1H-indazol-5-amine] were, in that order, 41 nM, 7.6 nM and 16.2 nM.
For `Fc1cncc(CNc2ccc3[nH]nc(/C=C/c4ccccn4)c3c2)c1` [DYX-419, (E)-N-((5-fluoropyridin-3-yl)methyl)-3-(2-(pyridin-2-yl)vinyl)-1H-indazol-5-amine], in that order: 11.9 nM, 2.4 nM and 4 nM.
For `Cc1ccccc1/C=C/c1n[nH]c2ccc(Cc3cc(F)cc(F)c3)cc12` [Example D01F08, (E)-5-(3,5-difluorobenzyl)-3-(2-methylstyryl)-1H-indazole], in that order: 400 nM, 112 nM and 158 nM.
For `Fc1cc(F)cc(Cc2ccc3[nH]nc(/C=C/c4ccccc4C(F)(F)F)c3c2)c1` [Example D01F11], the IC50 against BaF3-ETV6-NTRK2 amounted to 159 nM; against BaF3-CD74-NTRK1, 12.9 nM; on BaF3-ETV6-NTRK3 it was 25.6 nM.

For orientation: IC50 means the point on the concentration scale where inhibition reaches its midpoint.
